Target: hemoglobin (Homo sapiens, UniProt P68871+P69905)
Experiment: hemoglobin-oxygen equilibrium curves (P50 value, oxygen saturation fraction)
Assay type: biochemical
Settings: for effect in combination with 2,3-BPG on hemoglobin modulation: FIG. 2
Text: The oxygen affinity of hemoglobin was represented by P50 value. The P50 value was the required partial pressure of oxygen to achieve 50% oxygen saturation.

[1] = PO2 20 mmHg, 2,3-BPG 1.2 mM, alone or after treating with a phthalide compound (FIG. 7)

Chain of hemoglobin (P69905 2-142 limits assumed): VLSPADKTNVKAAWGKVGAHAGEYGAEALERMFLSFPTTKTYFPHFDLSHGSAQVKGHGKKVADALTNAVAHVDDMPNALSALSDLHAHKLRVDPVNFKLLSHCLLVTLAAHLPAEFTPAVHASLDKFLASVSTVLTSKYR
Chain of hemoglobin (P68871 2-147 limits assumed): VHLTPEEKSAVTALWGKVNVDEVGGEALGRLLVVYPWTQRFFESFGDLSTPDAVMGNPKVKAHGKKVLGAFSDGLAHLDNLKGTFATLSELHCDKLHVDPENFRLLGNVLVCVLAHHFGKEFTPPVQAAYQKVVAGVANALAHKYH

Row | SMILES | effect in combination with 2,3-BPG on hemoglobin modulation | oxygen release efficiency [1] [%] | oxygen saturation level / fraction of hemoglobin [1] | P50 value of hemoglobin (about 4 mM 2,3-BPG, no phthalide compound) [mmHg] | oxygen release efficiency of hemoglobin (oxygen partial pressure 20 mmHg, 12 mM 2,3-BPG, hemoglobin without 2,3-BPG 20%) [%] | oxygen saturation fraction of hemoglobin (oxygen partial pressure 20 mmHg, 12 mM 2,3-BPG, hemoglobin without 2,3-BPG about 80%) [%] | 2,3-BPG required for hemoglobin to reach a P50 value of 18.8 mmHg (approximately the same or higher) (without or after administration of phthalide compounds (FIG. 6))
1 | CCC/C=C1\OC(=O)C2=C1CCC=C2 [Z-Ligustilide, Z-ligustilide] | synergistic effect |  |  |  |  |  | 
2 | O=C(O)C(COP(=O)(O)O)OP(=O)(O)O (centres unmarked) [2,3-BPG, 2,3-bisphosphorglycerate] |  | 40 | about 60% | 18.8 | 65 | ~35 | about 4 mM
3 | CCC/C=C1\OC(=O)C2=C1CC[C@@H](O)[C@@H]2O [Senkyunolide I, senkyunolide I] | synergistic effect |  |  |  |  |  | 

From patent US20170266154A1, “METHOD FOR TREATING ALZHEIMER'S DISEASE AND 2, 3-BIPHOSPHOGLYCERATE METABOLISM DISORDER INDUCED” (National Sun Yat-sen University, priority 2016, published 2017)
